Data reported in US9164075B2, “Glutathione alkylester isotopologue and method for detecting reactive metabolite” (priority 2011, dated 2015).

What was measured:
[1] = rat, 60 min, 10 μmol/L, pH 7.4
Description: Glutathione ethyl ester (1 mmol/L, 1 μmol) was used as the trapping agent instead of the mixture of glutathione ethyl ester (GSHEE) and glutathione ethyl ester-d5 (GSHEE-d5), and the reaction and measurement were performed in the same manner as in (step 1) and (step 2) described above.
In the MS/MS measurement corresponding to (step 2-3), the MS/MS measurement was performed in a data dependent scan mode in which ions with the strongest intensity in a first spectrum were subjected to collisional activation to thereby obtain a second spectrum. The measurement conditions used are as follows (measurement conditions C).

[2] = for NUMBER OF IDENTIFIED REACTIVE METABOLITES (EXAMPLES): rat, 60 min, 10 μmol/L, pH 7.4
Description: (§1) NADPH (20 mmol/L, […]) was added to the pre-incubated incubation mixture and a reaction (incubation) was started. The final incubation volume was 1 mL. A sample containing no object compound was used as a control.
(§2) After incubation at 37° C. for 60 minutes, a 50 mmol/L aqueous dithiothreitol solution (100 μL, 5 μmol) was added to the incubation mixture, and the resultant mixture was subjected to centrifugation at 10,000 g for 5 minutes. The centrifugation supernatant was added to a solid phase extraction column (OASIS HLB 1 cc, 30 mg) that was pre-washed with 1 mL of methanol and activated with 1 mL of purified water. The column was washed with 1 mL of water and 1 mL of 5% methanol solution, and a reaction product was eluted with 1 mL of methanol. The solvent was removed by evaporation under nitrogen flow, and the residue was dissolved in 150 μL of acetonitrile:water (2:8) to prepare an analysis sample.
(§3) An AQCUITY UPLC system (WATERS) was used for separation by chromatography. Aliquots (10 μL) of the prepared analysis sample was injected into an AQCUITY UPLC BEH C18 column (2.1×100 mm, 1.7 μm). The separation by chromatography was performed under gradient conditions shown in the following table at a mobile phase flow rate of 0.5 mL/minute.
(§4) The LC column eluate obtained in step 2-1 was introduced into an LTQ XL ion trap mass spectrometer. Ionization was performed in an ESI positive mode (a mode for detecting positively charged ions). The measurement conditions used are shown below (measurement conditions A).
The measurement conditions used are shown below (measurement conditions B).
Among the peaks appearing in the final chromatogram, peaks other than the peaks also appearing in the final chromatogram for the control (FIG. 2 or 13) are considered to be the peaks of trapping agent-reactive metabolite adducts.

[3] = Reactive metabolite trapping test with glutathione ethyl ester only, data dependent scan mode with Dynamic Exclusion ON (Comparative Example 8); format: in vitro ADME; details: rat liver microsomes
Description: Omeprazole was used as the object compound. Measurement was performed in the same manner as in Comparative Example 1 except that the MS/MS measurement corresponding to (step 2-3) was performed in a data dependent scan mode (a Dynamic Exclusion ON mode) in which the MS/MS measurement was performed on ions in descending order of intensity. In the data dependent scan mode (Dynamic Exclusion ON mode), ions for a peak with the strongest intensity among the peaks in a first spectrum are subjected to MS/MS measurement three times. Then these ions are eliminated, and ions with the next strongest intensity are subjected to MS/MS measurement three times. This processing is repeated in order of intensity. The measurement conditions used are as follows (measurement conditions D).

[4] = rat, 60 min, 10 μmol/L, pH 7.4; remark: listed apart in the source
Description: as §1
as §2, with “minutes,” for “minutes, a 50 mmol/L aqueous dithiothreitol solution (100 μL, 5 μmol) was added to the incubation mixture, and”, “water,” for “solution,”
as §3, with “under the” for “under”, “TABLE 3” for “the following table”
as §4
The measurement conditions used are shown below (measurement conditions E).
Among the peaks appearing in the final chromatogram, peaks other than the peaks also appearing in the final chromatogram for the control (FIG. 46) are considered to be the peaks of trapping agent-reactive metabolite adducts.

NUMBER OF IDENTIFIED REACTIVE METABOLITES (COMPARATIVE EXAMPLES, GSHEE) [1] | judgement of reactive metabolite formation [2] | NUMBER OF IDENTIFIED REACTIVE METABOLITES (EXAMPLES) [2] | number of types of reactive metabolite found [3] | NUMBER OF IDENTIFIED REACTIVE METABOLITES (COMPARATIVE EXAMPLES, [13C2, 15N]GSH) [4] | Compound
1 |  |  |  |  | O=C(O)Cc1ccccc1Nc1c(Cl)cccc1Cl [diclofenac]
1 | positive | 2 | one | 2 | COc1ccc2[nH]c([S+]([O-])Cc3ncc(C)c(OC)c3C)nc2c1 (centres unmarked) [omeprazole]
3 | positive | 3 |  | 2 | O=c1c(O)c(-c2ccc(O)c(O)c2)oc2cc(O)cc(O)c12 [quercetin]
0 | positive | 1 |  | 1 | O=C(O)COc1ccc(C(=O)c2cccs2)c(Cl)c1Cl [tienilic acid]
